Patent publication US8476036B2, “Nonluminogenic assay for living cells” (Promega Corporation, priority 2004, dated 2013)
Peptide text beside a SMILES is read from it. * marks the point of attachment. X1 = O=C(O)C1CSC(c2nc3ccc(N*)cc3s2)=N1; Cbz = O=C(OCc1ccccc1)*

What was measured:
Assay type in all cases: cell-based
Jurkat cells = assay: Protease retention assay formats with different peptide sequences and reporters; conditions: viable versus lysed cells
Method: Actively doubling Jurkat cells were serially diluted from 37,500 cells/well in RPMI 1640+10% FBS in a white-walled, clear bottomed 96 well plate in 100 μl volumes. The cells in half of the plate were lysed with the addition of Triton X to 0.2% final. The other half of the plate wells received a matched volume (5 μl) of water vehicle. Tyr-AMC, Phe-AMC and Gly-Phe-AFC were all rehydrated in DMSO to 100 mM then diluted in RPMI 1640 to 1 mM. 1/10th volume of diluted substrates were added to the wells, mixed briefly by orbital shaking then incubated at 37° C. in 5% CO2 for up to 1.5 hours. Resulting fluorescence was measured at Ex. 360 Em. 460 and Ex. 405 and Em. 500 at 30 and 90 minutes.

HL-60 or Jurkat [1] = assay: Protease retention substrate selectivity, untreated viable cells; set-up: key: None denotes no statistical activity above control population.; (+) to (+++++) denotes the range of activity above control population from modest to robust; (+) to (+++++) denotes the range of activity above control population from modest to robust; (+) to (+++++) denotes the range of activity above control population from modest to robust; (+) to (+++++) denotes the range of activity above control population from modest to robust; (+) to (+++++) denotes the range of activity above control population from modest to robust; conditions: substrate cleavage activity above control in untreated viable cells; 15-30 minutes at 37° C.
Description: (§1) Ala-Ala-Phe-AMC was obtained from Promega. Z-Leu-Leu-Val-Tyr-aminoluciferin (LLVY corresponds to SEQ ID NO:18), Z-Leu-Arg-aminoluciferin, Z-Phe-Arg-aminoluciferin, Ala-Ala-Phe-aminoluciferin, (Ala-Ala-Phe)2-R110, and (Gly-Phe)2-R110 were synthesized by Promega Biosciences. Suc-Ala-Ala-Phe-AMC, H-Phe-AMC, H-Tyr-AMC, Glutyl-Ala-Ala-Phe-AMC (EMF corresponds to SEQ ID NO:32), H-Gly-Phe-AMC, Z-Gly-Ala-Met-AMC, Suc-Leu-Leu-Val-Tyr-AMC (LLVY corresponds to SEQ ID NO:18), D-Ala-Leu-Lys-AMC, H-Gly-Ala-AMC, H-Gly-Gly-AMC, Suc-Ala-Ala-Phe-AMC, Z-Arg-Leu-Arg-Gly-Gly-AMC (RLRGG corresponds to SEQ ID NO:29), Z-Leu-Arg-Gly-Gly-AMC (LRGG corresponds to SEQ ID NO:30) and Ac-Ala-Ala-Tyr-AMC were sourced from Bachem. Gly-Phe-AFC, Pro-Phe-Arg-AMC, Gly-Gly-Leu-AMC, and Ser-Tyr-AFC were obtained from Calbiochem. Z-Phe-Arg-AMC and Suc-Arg-Pro-Phe-His-Leu-Leu-Val-Tyr-AMC (RPHLLVY corresponds to SEQ ID NO:31) were purchased from Sigma.
(§2) All substrates were solubilized in DMSO from 10 to 100 mM depending upon inherent solubility. Fluorescent substrates were diluted to 100 μM to 1 mM in 10 mM Hepes, pH 7.5 or matched cell culture medium with 10% serum and added in 1/10th volumes to lysed (freeze fractured, sonicated, or detergent) or untreated viable cells in white-walled, clear bottomed 96-well plates. HL-60 or Jurkat were used in the experimentation interchangeably because of their easily manipulated suspension phenotype. Plates were incubated for 15-30 minutes at 37° C. prior to measuring fluorescence by the CYTOFLUOR® II.
(§3) Luminescent substrates were added to a luciferin detection cake (Promega V859A) resuspended in 2 ml 10 mM Hepes, pH 7.5 to 500 μM. ⅕^th volume of the proluminescent reaction mixes were added to lysed (freeze fractured, sonicated, or detergent) or untreated viable cells in white-walled, clear bottomed 96-well plates. Again, HL-60 or Jurkat were used in the experimentation interchangeably. Plates were incubated at 37° C. in a MeCour' circulating heat block controlled by a Caron 2050W exchange unit. Luminescence was measured between 15 and 30 minutes (signal steady state).
(§4) A broad variety of proteolytic substrates were examined in an effort to characterize potential substrate preferences for protease release or retention in compromised or viable cells (see Table 4). […] Non-blocked substrates (H- and the like) were examined to include the contribution of aminopeptidase activities. From this panel, at least three proteolytic profiles emerged: an aminopeptidase-like activity preferring unblocked Ala-Ala-Phe tripeptide, a proteosomal (chymotrypsin-like) activity measured by release of blocked Leu-Leu-Val-Tyr (SEQ ID NO:18) peptides, and an exceedingly labile activity by Gly-Phe, Gly-Ala, Phe-, Tyr- or Gly-Gly-Leu substrates. The latter activities were only measurable in viable, intact cells. Of further significance is that several fluorophores or proluminescent labels can be used to detect these activities, ultimately allowing for enhanced downstream multiplexing flexibility.

HL-60 or Jurkat [2] = assay: Protease release substrate selectivity, lysed (freeze fractured, sonicated, or detergent) cells; set-up: key: None denotes no statistical activity above control population.; (+) to (+++++) denotes the range of activity above control population from modest to robust; (+) to (+++++) denotes the range of activity above control population from modest to robust; (+) to (+++++) denotes the range of activity above control population from modest to robust; (+) to (+++++) denotes the range of activity above control population from modest to robust; (+) to (+++++) denotes the range of activity above control population from modest to robust; conditions: substrate cleavage activity above control in lysed cells; 15-30 minutes at 37° C.
Description: as §1, §2, §3, §4

HL-60 cells = assay: Luminescent protease release assay with different enzyme targets; conditions: HL-60 with or without sonication, 15 minutes at 37° C.
Method: Actively doubling HL-60 cells were adjusted to 100,000 cells/ml and split into two aliquots. One aliquot was sonicated using a microtip MISONIXTM™ 3000 with 30% power for three 5 second pulses. The other aliquot was held at 37° C. The cell suspension and lysates were then two-fold serially diluted in RPMI 1640 +10% FBS in 100 μl volumes. Medium only served as the no cell control. A luciferin detection reagent cake (Promega V859A) was resuspended with 2.0 ml of 10 mM Hepes, pH 7.5. The luciferin detection reagent was then divided and made 1 mM with either Z-Leu-Leu-Val-Tyr-aminoluciferin (LLVY corresponds to SEQ ID NO:18) or Ala-Ala-Phe-aminoluciferin. Each reagent was added to independent replicates of the plate in 1/10th volumes and allowed to incubate for 15 minutes at 37° C. in the Me'Cour thermal jacketed water bath holder before luminescence measurement using the BMG FLUOstar Optima.

ACHN cells = assay: Live cell protease retention multiplexed with caspase 3/7 activity, ACHN; conditions: serial dilutions, 5 hours
Method: (§5) SK-MEL-28 or ACHN cells were seeded into white-walled, clear bottomed 96 well plates at a density of 10,000 cells per well in 100 μl volumes and allowed to attach at 37° C. in 5% CO2 for a period of 2 hours. After attachment, 50 μl of medium was carefully removed and replaced with serial dilutions of either ionomycin or staurosporine in MEM+10% FBS. Medium only served as control. The plate was incubated for an additional 5 hours. A 1 mM solution of Gly-Phe-AFC was made in MEM and added to the wells in a 1/10th volume. Resulting fluorescence was measured using a CYTOFLUOR® II. Caspase-GIo™ 3/7 reagent was then added and luminescence measure using a BMG FLUOstar Optima.

SK-MEL-28 cells = assay: Live cell protease retention multiplexed with caspase 3/7 activity, SK-MEL-28; conditions: SK-MEL-28, serial dilutions, 5 hours
Method: as §5

| Compound | Suitability as live cell protease retention substrate (Jurkat cells) | Retention (HL-60 or Jurkat [1]) | Release (HL-60 or Jurkat [2]) | Performance as protease release substrate (HL-60 cells) | Cytotoxicity profile (live cell fluorescence and caspase 3/7 activity) (ACHN cells) | Cytotoxicity profile (live cell fluorescence and caspase 3/7 activity) (SK-MEL-28 cells) |
| --- | --- | --- | --- | --- | --- | --- |
| NCC(=O)N[C@@H](Cc1ccccc1)C(=O)Nc1ccc2c(c1)Oc1cc(NC(=O)[C@H](Cc3ccccc3)NC(=O)CN)ccc1C21OC(=O)c2ccccc21 [(Gly-Phe)2 R110, (Gly-Phe)2-R110] | apparently unable to effectively traverse the cell membrane or was not effectively cleaved by the candidate protease | None | None |  |  |  |
| CC(C)CC(NC(=O)OCc1ccccc1)C(=O)NC(CC(C)C)C(=O)NC(C(=O)NC(Cc1ccc(O)cc1)C(=O)Nc1ccc2nc(C3=NC(C(=O)O)CS3)sc2c1)C(C)C (stereo not drawn) [Z-Leu-Leu-Val-Tyr-Aluc, Z-Leu-Leu-Val-Tyr-aminoluciferin] (Cbz-LLVY-X1; configuration not given here) |  | None | ++ | performed less optimally than the AAF-aminoluciferin sequence |  |  |
| CN[C@@H]1C[C@H]2O[C@@](C)([C@@H]1OC)n1c3ccccc3c3c4c(c5c6ccccc6n2c5c31)C(=O)NC4 [staurosporine] |  |  |  |  | apoptotic profile | caspase activation (and therefore apoptosis induction) is evident |
